Laboratory results taken from patent publication US10774076B2, “Benzazole compounds and methods for making and using the compounds” (Rigel Pharmaceuticals, Inc., priority 2015, dated 2020).

Assays:
IL23-p19 = assay: Compound screening using DC cells: LPS-induced IL-23 (p19/p40) ELISA in IFNγ-primed dendritic cells differentiated from human PBMC; format: cell-based; conditions: Dendritic cell, human PBMC-derived dendritic cells, LPS 1 μg/ml, 18 hours, 10 pt
Description: Compound Screening Using DC Cells
Human PBMC cells (400 million) obtained from the vendor were transferred into a T-175 flask containing 15 ml RPMI media (10% FBS) and incubate for 2 hours at 37° C. After 2 hours, the media including floating cells was aspirated out carefully and 12 ml of fresh RPMI media (10% FBS) containing GMCSF (100 ng/ml) and IL4 (20 ng/ml) was added, and the flask was kept in a 37° C. incubator for 7 days.
After 3 days, fresh GMCSF (100 ng/ml) and IL4 (20 ng/ml) were added to the flask and the incubation continued. After 7 days, the fully differentiated cells were harvested by spinning down (1200 rpm/5 min) and aspirating the media. The cells were suspended in fresh RPMI media (10% FBS) containing 50 ng/ml IFNγ (1000 U/ml) and then plated (50K/well in 100 μl) onto a white clear bottom 96 well plate and left in a 37° C. incubator for 24 hours.
After 24 hours incubation, 100 μl of RPMI media was added containing 2× concentrated test compound per well to the above cell-culture media (final concentration becomes 1×) and the plates were pre-incubated for 1 hour at 37° C. before stimulating with LPS.
After 1 hour compound pre-incubation, 10 μl per well of 20× concentrated LPS solution in RPMI media was added to give a final concentration of 1 μg/ml. The mixture was shaken and incubated the plates at 37° C. for an additional 18 hours.
155 μl of the supernatant was harvested from each well carefully (without the tip touching the bottom of the well) and to the remaining 50 μl/well of the cell culture plate was added 50 μl of Cell Titer Glo reagent. The mixture was incubated for 1-2 minutes on a shaker and the plate was read for luminescence intensity to determine the compound cytotoxicity. The cell culture supernatant collected above was used to carry out IL23 ELISA (65 μl—Supernatant) and IL10 ELISA (90 μl—Supernatant) as described below.
Human IL-23 (p19/p40) ELISA Protocol (e-Biosciences)
To 10.5 ml PBS add 50 μl of anti-IL23 (p19) was added capture antibody (2.5 μg/ml). The mixture was mixed well and 100 μl of the coating solution was added to each well of the 96 well white plates from Pierce. The wells were covered and incubated overnight at 4° C.
The anti-IL23 (p19)-antibody-coated plates were washed 2× using TBST (use plate washer) and blocked using 200 μl of 0.5% Casein for 1.5-2 hours at room temperature with shaking.
The plates were washed 2× using TBST and the supernatant was transferred (65 μl/well) to the above pre-blocked/IL23(p19)-antibody-coated 96 well plate, and incubated at room temperature for 1.5 hours with shaking.
The plates were washed 4× using TBST (plate washer) and 100 μl/well detection antibody solution prepared from 2 μl of biotin labeled anti-IL-12 (p40/p70) antibody in 11 ml 1% BSA/PBS solution (I-5000 dilution) was added. The plates were incubated for 1 hour with shaking at Room temperature.
Again, the plates were washed 4× with TBST and 100 μl of HRP labeled Streptavidin (R&D Systems) solution (10 μl/10 ml 1% BSA solution) was added, and the plates were incubated at room temperature for another 45 minutes with shaking.
After 45 minutes, the plates were washed with TBST 4× and 100 ul/well Super Signal ELISA Pico Chemiluminescent Substrate from Pierce (3.5 ml A+3.5 ml B+3.5 ml MQ water) was added. The plates were shaken for 1-2 minutes then read on a plate reader.

IL23p19 = assay: LPS Induced IL23p19 in THP-1 Cells (with IFNγ Primed) Assay; format: cell-based; conditions: Homo sapiens, IFNγ primed (50 ng/mL), LPS 1 ug/mL, 18 hours, 10 pt, read-out: IL23-p19 ELISA, THP1-IFNy, LPS, 10 pt EC50
Excerpt: LPS Induced IL23p19 in THP-1 Cells (with IFNγ Primed) Assay
THP-1 Cells (ATCC, Cat # TIB-202), Dimethyl Sulfoxide (DMSO) (Sigma-Aldrich, Cat # D2650), RPMI 1640 (Cellgro, Cat #10-040-CM), Fetal Bovine Serum (Sigma, Cat # F4135), Albumin From Bovine Serum (BSA) (Sigma-Aldrich, Cat # A7906), LPS (Serotype K-235, Sigma, Product Number L 2143), IFNγ (Peprotech, Cat #300-02)
Capture antibody: Human IL-23p19 ELISA (e-Bioscience, Cat. #14-7238-85),
Detection antibody: Primary Mouse Biotinylated anti-human IL-12(p40/p70) (e-Bioscience, Cat. #13-7129-85), Secondary HRP-conjugated Streptavidin (R&D Systems, Cat # DY998), 1×PBST Washing Buffer (PBS-Tween tablet) (VWR International, Cat #80058-558), ELISA Blocking Buffer (PBS with 1% BSA), ELISA Dilution Buffer (PBS with 1% BSA), 384 Well Flat-Bottom, MaxiSorp Black Immuno Plates (Thermo Scientific, Cat #12-565-346), 384 Well Flat-Bottom, White Tissue Culture Plates (Thermo Scientific, Cat #12-565-343), Super Signal ELISA Pico Chemiluminescent Substrate (Thermo Scientific, Cat #37070), Cell Titer Glo reagent (Promega, Cat # G7573), Positive control, IKK2VI inhibitor (Calbiochem, Cat #401483), AquaMax 4000 plate washer (Molecular Devices), Luminometer, Wallac Victor2 1420 Multilabel Counter. Method THP-1 Cells Stimulation:
On day 1, 50K/well THP-1 cells were seeded and primed with IFNγ (50 ng/mL) in 384-well plates for about 18 hours in RPMI media with 10% FBS. On day 2, the compound was serially diluted in DMSO from 5 mM in 3-fold dilutions, and then diluted 1:125 in RPMI media with 10% FBS. 50 μL/well 2× compound was added to 50 μL/well THP-1 cells (with IFNγ primed) in duplicate in 384 well tissue culture plates. The cells were pre-incubated with compound for 1 hour at 37° C., 5% CO2 before addition of 10 μL/well 11×LPS to give a final concentration of 1 ug/mL LPS. Day 3, after stimulation for 18 hours at 37° C., 5% CO2, the assay plate was centrifuged and 70 μL/well supernatant was harvested. IL-23p19 protein in 70 μL/well of supernatant was measured by sandwich ELISA, and 25 μl/well Cell Titer Glo reagent was added to the remaining cells to measure compound toxicity.
Human IL-23p19 Sandwich ELISA:
Maxisorp immuno ELISA plates were pre-coated with 25 μL/well of anti-IL-23p19 capture antibody (2.5 ug/mL) in PBS overnight at room temperature. After washing with 1×PBST, the plates were blocked using 100 μL/well of 1% BSA in PBS for 2 hours at room temperature. The plates were washed three times with 1×PBST and 70 μL/well supernatant were added. The plates were incubated at room temperature for 2 hours with shaking and washed three times with 1×PBST. 25 μL/well of biotin labeled anti-IL-12(p40/p70) detection antibody (100 ng/mL) in PBS with 1% BSA was added and the plates were incubated at room temperature for 2 hours with shaking. After washing three times with 1×PBST, 25 μL/well of streptavidin-HRP (1:200) in PBS with 1% BSA was added and the plates were incubated at room temperature for 20 minutes with shaking. The plates were washed three times with 1×PBST and 25 μL/well of Super Signal ELISA Pico Chemiluminescent Substrate were added. The plates were read with a luminometer, and the chemiluminescence values were entered into Athena (Rigel) for curve fitting, EC50 calculation, and database storage.

SMILES | EC50 (IL23-p19) [µM] | EC50 (IL23p19) [µM]
Cc1cc(-c2nc(C(=O)Nc3cc4oc(N5CCCCC5)nc4cc3N3CCCCC3)cs2)ccn1 [Compound I-37, N-(2,5-di(piperidin-1-yl)benzo[d]oxazol-6-yl)-2-(2-methylpyridin-4-yl)thiazole-4-carboxamide] | – | 23.1
Nc1ccc(-c2nc(C(=O)Nc3cc4oc(N5CCOCC5)nc4cc3N3CCCCC3)cs2)cn1 [Compound I-11, 2-(6-aminopyridin-3-yl)-N-(2-morpholino-5-(piperidin-1-yl)benzo[d]oxazol-6-yl)thiazole-4-carboxamide] | – | 228
Cc1cc(-c2ccc(C(=O)Nc3cc4oc(N5CCOCC5)nc4cc3N3CCCCC3)o2)ccn1 [Compound I-10, 5-(2-methylpyridin-4-yl)-N-(2-morpholino-5-(piperidin-1-yl)benzo[d]oxazol-6-yl)furan-2-carboxamide] | 2.99 | 4.63
CN1CCN(c2nc3cc(N4CCCCC4)c(NC(=O)c4ccc(-c5ccc(N)nc5)o4)cc3o2)CC1 [Compound I-15, 5-(6-aminopyridin-3-yl)-N-(2-(4-methylpiperazin-1-yl)-5-(piperidin-1-yl)benzo[d]oxazol-6-yl)furan-2-carboxamide] | 1.69 | 73
Cc1cc(-c2nc(C(=O)Nc3cc4oc(N5CCOCC5)nc4cc3N3CCC(F)(F)CC3)cs2)ccn1 [Compound I-30, N-(5-(4,4-difluoropiperidin-1-yl)-2-morpholinobenzo[d]oxazol-6-yl)-2-(2-methylpyridin-4-yl)thiazole-4-carboxamide] | – | 43.5
Cc1cc(-c2nc(C(=O)Nc3cc4oc(N5CCOCC5)nc4cc3N3CCCC(F)(F)C3)cs2)ccn1 [Compound I-45, N-(5-(3,3-difluoropiperidin-1-yl)-2-morpholinobenzo[d]oxazol-6-yl)-2-(2-methylpyridin-4-yl)thiazole-4-carboxamide] | 0.402 | 0.342
Nc1ccc(-c2nc(C(=O)Nc3cc4oc(N5CCCCC5)nc4cc3N3CCCCC3)cs2)cn1 [Compound I-34, 2-(6-aminopyridin-3-yl)-N-(2,5-di(piperidin-1-yl)benzo[d]oxazol-6-yl)thiazole-4-carboxamide] | – | 8.32
O=C(Nc1cc2oc(N3CCOCC3)nc2cc1N1CCCCC1)c1csc(-c2cc[nH]n2)n1 [Compound I-13, N-(2-morpholino-5-(piperidin-1-yl)benzo[d]oxazol-6-yl)-2-(1H-pyrazol-3-yl)thiazole-4-carboxamide] | – | 2.93

Now from value to molecule:

EC50 (IL23-p19) [µM] | EC50 (IL23p19) [µM] | SMILES
0.0481 | 0.0504 | O=C(Nc1cc2oc(N3CCOCC3)nc2cc1N1CCOCC1)c1csc(-c2cn[nH]c2)n1 [Compound I-49, N-(2,5-dimorpholinobenzo[d]oxazol-6-yl)-2-(1H-pyrazol-4-yl)thiazole-4-carboxamide]
– | 1.18 | Cc1cc(-c2nc(C(=O)Nc3cc4oc(N5CCOCC5)nc4cc3N3CCC(F)CC3)cs2)ccn1 [Compound I-26, N-(5-(4-fluoropiperidin-1-yl)-2-morpholinobenzo[d]oxazol-6-yl)-2-(2-methylpyridin-4-yl)thiazole-4-carboxamide]
0.157 | 0.0757 | O=C(Nc1cc2oc(N3CCOCC3)nc2cc1N1CCC(F)CC1)c1ccc(-c2cn[nH]c2)o1 [Compound I-23, N-(5-(4-fluoropiperidin-1-yl)-2-morpholinobenzo[d]oxazol-6-yl)-5-(1H-pyrazol-4-yl)furan-2-carboxamide]
4.73 | 0.898 | Nc1ccc(-c2ccc(C(=O)Nc3cc4oc(N5CCOCC5)nc4cc3N3CCCCC3)o2)cn1 [Compound I-1, 5-(6-aminopyridin-3-yl)-N-(2-morpholino-5-(piperidin-1-yl)benzo[d]oxazol-6-yl)furan-2-carboxamide]
0.121 | 0.18 | CN(CCN1CCOCC1)c1nc2cc(N3CCCCC3)c(NC(=O)c3ccc(-c4cn[nH]c4)o3)cc2o1 [Compound I-53, N-(2-(methyl(2-morpholinoethyl)amino)-5-(piperidin-1-yl)benzo[d]oxazol-6-yl)-5-(1H-pyrazol-4-yl)furan-2-carboxamide]
– | 0.614 | O=C(Nc1cc2sc(N3CCOCC3)nc2cc1N1CCCCC1)c1ccc(-c2cc[nH]n2)o1 [Compound I-8, N-(2-morpholino-5-(piperidin-1-yl)benzo[d]thiazol-6-yl)-5-(1H-pyrazol-3-yl)furan-2-carboxamide]
8.07 | 0.355 | Cc1cc(-c2ccc(C(=O)Nc3cc4oc(N5CCOCC5)nc4cc3N3CCCC(F)C3)o2)ccn1 (stereo not shown) [Compound I-39, N-(5-(3-fluoropiperidin-1-yl)-2-morpholinobenzo[d]oxazol-6-yl)-5-(2-methylpyridin-4-yl)furan-2-carboxamide]
– | 4450 | Cc1cc(-c2ccc(C(=O)Nc3cc4oc(N5CCCCC5)nc4cc3N3CCCCC3)o2)ccn1 [Compound I-33, N-(2,5-di(piperidin-1-yl)benzo[d]oxazol-6-yl)-5-(2-methylpyridin-4-yl)furan-2-carboxamide]
– | 5.24 | O=C(Nc1cc2oc(N3CCCCC3)nc2cc1N1CCCCC1)c1csc(-c2cc[nH]n2)n1 [Compound I-36, N-(2,5-di(piperidin-1-yl)benzo[d]oxazol-6-yl)-2-(1H-pyrazol-3-yl)thiazole-4-carboxamide]
